Test results taken from US20100196311A1, “METHODS AND COMPOSITIONS CONTAINING mTOR INHIBITORS FOR ENHANCING IMMUNE RESPONSES” (priority 2009, published 2010).

Experiments:
T-bet = T-bet mRNA and protein expression in OT-I cells; type: cell-based, mouse
Experimental: FIG. 4. IL-12-Enhanced mTOR Phosphorylation Is Essential for T-bet-Determined Type I Effector Maturation of CD8^+ T Cells. (A-C) OT-I cells stimulated with Ag+B7.1 (±) IL-12 and rapamycin were evaluated for (A) mRNA for T-bet at the indicated time points by RT-PCR, (B) T-bet protein expression at the indicated time-points by ICS, and (C) T-bet protein expression by ICS before and after antigen recall. **p<0.0035; ***p<0.0005. (D) WT and Tbx21^−1− OT-I cells were stimulated with Ag+B7.1 (±) IL-12 and evaluated for IFN-γ production at the primary and secondary phase. ***p<0.0001. (E and F) OT-I cells stimulated with Ag+B7.1 (±) IL-12 and rapamycin were transduced with T-bet-ER retroviral vector (±) 4-HT (10 nM) and evaluated by ICS for (E) T-bet protein expression by ICS and (F) IFN-γ at secondary phase (168 hr). (G and H) OT-I cells stimulated with Ag+B7.1 (±) insulin (1 U/ml) and rapamycin were evaluated by ICS for (G) S6K phosphorylation at 48 hr and (H) T-bet expression at 72 hr. Experiments shown are representative of at least three (A, B, D, E, and F) and two (C, G, and H) independent experiments with similar outcomes. (Data are presented as mean±SEM).
Retroviral Transduction and T-Bet Induction. T-bet-ER RV (Estrogen Responsive Retro Viral Vector) was cotransfected into Platinum-E cells together with the retroviral packaging vector pCL-Eco using LipoD293 DNA in vitro transfection reagent (SignaGen Laboratories) following the manufacturer's instructions. The medium was replaced the following day, and retroviral supernatant was collected 3 days after transfection. For transduction, naive OT-I cells stimulated for 24 hr, were suspended in retroviral supernatant containing polybrene (8 μg/ml; Sigma-Aldrich), and were spin-transduced at 2200 rpm for 90 min at 30° C. After spin-transduction, cells were cultured in fresh medium containing the same polarizing milieu as before, along with the addition of 4-HT (10 nM). At the end of 72 hr after initial stimulation, cells were washed thrice and maintained in the absence of any stimulation but in the presence of 4-HT and IL-7 (10 ng/ml).
Because the sustained expression of T-bet is necessary and sufficient for imprinting type I effector cell fate (Matsuda et al., 2007) and mTOR inhibition reversed IL-12 imprinted type I effector maturation in OT-I cells (FIG. 3), we next sought to determine whether rapamycin treatment affects T-bet expression in OT-I cells by performing kinetic analysis of T-bet mRNA expression (FIG. 4A). […] Moreover, inhibition of mTOR activity at 12 hr was also able to achieve loss in T-bet expression, similar to the observed loss in type I effector maturation (FIG. 3E).

mTOR = biological target: T1, mTOR (Mus musculus, UniProt P26883+Q9JLN9); test: mTOR activity (mTOR, S6K and S6 phosphorylation by ICS) in stimulated OT-I cells; type: cell-based
T1 construct: endogenous in cells; host or cells: naive OT-I CD8+ T cells (TCR transgenic Rag2-/- mice) stimulated with Ag+B7.1 +/- IL-12
Experimental: FIG. 1. […] (A and B) OT-I cells stimulated with BOK (Ag+B7.1) (±) IL-12 were evaluated for (A) IFN-γ by ICS and (B) cytolytic activity (primary, 72 hr poststimulation; secondary, 24 hr postsecondary stimulation); ***p<0.0002. (C-E) OT-I cells stimulated with antigen (Ag) (the antigen is a peptide consisting of Ser Ile Ile followed by Asn Phe Glu which are followed by Lys and Lue (OVAp), used at 10 nM) plus B7.1 (100 μg/ml)(Ag+B7.1)(±) IL-12 (2 ng/ml) were evaluated by ICS at the indicated time points for (C) phosphorylated mTOR, (D) phosphorylated S6K, and (E) phosphorylated ribosomal S6. For mTOR inhibition, rapamycin (20 ng/ml) was added 30 min prior to addition of antigen, cytokine Data are representative of at least three independent experiments with similar outcomes. (Data are presented as mean±SEM.)
(§1) Stimulation of OT-1 Cells. Naive OT-I cells were stimulated with latex microspheres expressing H-2K^b/ovalbumin antigen and B7.1 according to known techniques. Naive OT-II cells were stimulated with anti-CD3-/anti-CD28-coated latex beads. In some experiments, the cell line derived from embryonic fibroblasts, namely, BOK (MEC.B7.SigOVA: expressing H-2K^b, OVAp and B7.1, were used as antigen-presenting cells to stimulate naive OT-I cells according to known techniques.
Although the kinase mTOR has been implicated as an integrator of various extracellular signals and a sensor for internal energy levels for determination of cell fate, the role for mTOR in integrating instructions that program naive CD8^+ T cells for type I effector differentiation is unclear. First, we tested the ability of Ag and B7.1 (Ag+B7.1) in the presence or absence of IL-12 to activate mTOR in OT-I cells at various time points after stimulation. Stimulation of naive OT-I cells with Ag+B7.1 induced mTOR phosphorylation (activation) by 2 hr, which was maximal at 12 hr and barely detectable by 48 hr (FIG. 1C). Remarkably, IL-12 addition enhanced Ag+B7.1-induced mTOR phosphorylation at 2 hr, which was maintained at 48 hr after stimulation (FIG. 1C). […] To verify that the induction of mTOR phosphorylation also led to its kinase activity, we monitored the kinetics of p70 S6K phosphorylation (Ser 371), a direct target of mTOR kinase activity. Although both Ag+B7.1 and Ag+B7.1 plus IL-12 induced similar amounts of S6K phosphorylation at 12 hr (maximal), the presence of IL-12 was able to sustain the S6K phosphorylation up to 48 hr (FIG. 10), in correlation with mTOR phosphorylation (FIG. 1C). […] The Ag+B7.1±IL-12 stimulation-induced S6K and S6 phosphorylation in OT-I cells was blocked by rapamycin (specific inhibitor of mTOR complex-1) (FIGS. 1D and 1E), thus confirming the ability of instructions to activate mTOR and its kinase activity in OT-I cells. […]

OT-I cells = test: Type I effector functions (IFN-γ, CTL activity, Granzyme B) of OT-I cells, primary and secondary phase; type: cell-based, mouse; settings: T-bet-ER-transduced; tamoxifen 10 nM; secondary phase
Experimental: FIG. 3. Sustained mTOR Activity Is Essential for Heritable Type I Effector Differentiation of CD8^+ T Cells. […] (D and E) OT-I cells were stimulated with Ag+B7.1 (±) IL-12 and rapamycin was added 12 hr after stimulation to evaluate cells for (D) S6K phosphorylation at 48 hr and (E) IFN-γ production at the primary and secondary phase. Experiments shown are representative of at least three (A and B) and two (C-E) independent experiments with similar outcomes. (Data are presented as mean±SEM.)
as §1
Evaluation of Secondary Antigen-Recall Responses In Vitro. For studying secondary antigen-recall response in vitro; OT-I cells harvested at 72 hr (primary) were washed thrice with medium and recultured (1×10^5/ml) for an additional 72 hr in a 24-well plate with IL-7 (10 ng/ml) only. At 144 hr the cells were harvested, washed thrice with medium, had numbers adjusted (5×10^5), and were restimulated with Ag/B7.1 only for an additional 24 hr (secondary stimulation). At 168 hr, the cells recovered were evaluated by flow cytometry and in vitro functional assay.
Because the presence of IL-12 during antigen stimulation augments mTOR activity and is deterministic for type I effector maturation, we analyzed whether sustained mTOR kinase activity is required for IL-12-programmed type I effector functions in OT-I cells. To do so, we stimulated naive OT-I cells with BOK±IL-12, and rapamycin and effector functions were analyzed from the primary and secondary activated OT-I pool. […] In addition, we observed a block in IL-12-induced IFN-γ production and CTL activity upon rapamycin treatment at 144 hr after primary stimulation.

[1] = test system: RENCA (renal cancer cells); test: In vitro growth of RENCA cells; type: cell-based, mouse
[2] = test system: B16 tumors expressing gp100; test: Melanoma model: B16-gp100 tumors in C57/BL6 mice, vaccine with or without temsirolimus; type: in vivo, mouse; settings: vaccine gp100+CA9; treated 10 days after implantation
Experimental: FIG. 9. mTOR inhibition with temsirolimus enhanced the antitumor effects of a cancer vaccine (complex of gp100 and CA9) in C57/BL6 mice treated 10 days after implantation of B16 tumors expressing gp100. Each line represents tumor growth in a single mouse. To generate the vaccine, gp100 (antigen target) and CA9 (adjuvant) were complexed at 1:1 molar ratio by incubating at RT for 30 min. On day 0, 2×10^5 B16-gp100 cells were implanted into mice. The vaccine was administered i.d. on days 10, 17 and 24. Temsirolimus was inject i.p. on days 11 to 16, 18 to 23 and 25 to 30.
(§2) In the RCC model, a heat shock protein (HSP) served as an immune adjuvant and was complexed to a target antigen, carbonic anhydrase IX (CA9), which is expressed by 90% of clear cell RCCs. Balb/c mice were implanted with syngeneic RENCA tumors engineered to express CA9. In a treatment model targeting established tumor implants, mice were treated 10 days after implantation with tumor vaccine with or without temsirolimus (FIG. 8). […] In this model, CA9 was complexed to a melanoma antigen, gp100. C57/BL6 mice were implanted with syngeneic B16 tumors engineered to express gp100; mice were treated 10 days later with tumor vaccine. Similar results were obtained using a murine ovarian cancer model where the vaccine was augmented with rapamycin.

B16 melanoma = test: In vitro growth of B16 melanoma; type: cell-based, mouse
[3] = test system: RENCA tumors expressing CA9; test: Renal cell carcinoma model: RENCA-CA9 tumors in Balb/c mice, vaccine with or without temsirolimus; type: in vivo, mouse
Experimental: FIG. 8. Renal Cell Carcinoma model. mTOR inhibition with temsirolimus enhanced the antitumor effects of a cancer vaccine (complex of hsp110 and CA9) in Balb/C mice 10 days after implantation of RENCA tumors expressing the tumor antigen CA9. Each line represents tumor growth in a single mouse. To generate the vaccine, CA9 (antigen target) and HSP110 (heat shock protein adjuvant) were complexed at 1:1 molar ratio by incubating at 43° C. for 30 min. On day 0, 2×10^5 Renca-CA9 cells were implanted into mice. The vaccine was administered i.d. on days 10, 17 and 24. Temsirolimus was inject i.p. on days 11 to 16, 18 to 23 and 25 to 30.
as §2

[4] = test system: target cells loaded with gp100 25-33 epitope; test: In vivo CTL assay with Pmel-1 cells in C57/BL6 mice; set-up: species or system mouse; settings: temsirolimus administered with the vaccine; 14 hours
Text: (§3) Consistent with this possibility, immunization with CA9+gp100 elicited a gp100-specific IFN-γ response from splenocytes using an ELISPOT assay. […] Further, specific killing increased with temsirolimus treatment in an in vivo CTL assay. Pmel-1 cells were adoptively transferred to C57/BL6 mice and immunized with gp100+CA9 with or without temsirolimus. Pmel-1 cells are transgenic cells that recognize the H-2 Db-restricted epitope corresponding to amino acids 25-33 of gp100.13 Target cells loaded with the H-2 Db-restricted epitope were injected and monitored 14 hours later by flow cytometry. […] When temsirolimus was administered with the vaccine, specific killing increased to 78%.

gp100 = test: gp100-specific IFN-γ ELISPOT of splenocytes after immunization; type: in vivo, mouse; settings: concurrent treatment with temsirolimus; p<0.05
Text: FIG. 10. Immunization with CA9+gp100 elicited a gp100-specific IFN-γ response measured using the ELISPOT assay.
as §3

[5] = 2-DG added to Ag+B7.1 and IL-12-stimulated OT-I cells

In the case of insulin, the T-bet expression (T-bet; insulin (1 U/ml) added to Ag+B7.1-stimulated OT-I cells, 72 hr) is reported as “increase” and the “mTOR activity (S6 Kp)” value (mTOR; insulin (1 U/ml) added to Ag+B7.1-stimulated OT-I cells, 48 hr) is reported as “enhanced”.

For CC/C(=C(\c1ccccc1)c1ccc(OCCN(C)C)cc1)c1ccccc1 [tamoxifen], the “T-bet expression in T-bet-ER-transduced OT-I cells” value (T-bet; tamoxifen 10 nM) was “substantial increase” and the “IFN-γ production in rapamycin-treated IL-12-conditioned OT-I cells” value (OT-I cells) was “restored”.

In the case of O=CC[C@@H](O)[C@H](O)[C@H](O)CO [2-DG, 2-deoxyglucose], the T-bet expression (T-bet; [5]) is reported as “loss” and the mTOR activity (mTOR; [5]) is reported as “loss”.

With CO[C@H]1C[C@@H]2CC[C@@H](C)[C@@](O)(O2)C(=O)C(=O)N2CCCC[C@H]2C(=O)O[C@H]([C@H](C)C[C@@H]2CC[C@@H](OC(=O)C(C)(CO)CO)[C@H](OC)C2)CC(=O)[C@H](C)/C=C(\C)[C@@H](O)[C@@H](OC)C(=O)[C@H](C)C[C@H](C)/C=C/C=C/C=C/1C [temsirolimus] the Growth in vitro [1] was “direct effect”, the “Tumor growth, combination of vaccine and temsirolimus” value [2] was “greatest effect” and the Growth in vitro (B16 melanoma) was “no effect”. The “Tumor growth, agent alone” value ([3]; treatment from 10 days after implantation) was “decrease”, the “Tumor growth, combination of vaccine and temsirolimus” value ([3]; vaccine i.d. days 10, 17, 24, temsirolimus i.p. between) was “greatest effect” and the Specific killing [4] was 78%. For the same compound, the “gp100-specific IFN-γ response from splenocytes” value (gp100) was “significantly augmented”.
